From patent US4130709A, “Pleuromutilin glycoside derivatives” (Eli Lilly and Company, priority 1977, dated 1978)
≈ marks a conversion by molar mass, not a printed value. Read-outs that look alike come from different tables or passages of the source.

Experiments:
Bacteroides corrodens = assay: standard agar-dilution test, anaerobic bacteria; format: cell-based; conditions: Eikenella corrodens
Peptococcus prevoti = assay: standard agar-dilution test, anaerobic bacteria; format: cell-based
Fusobacterium symbiosum = assay: standard agar-dilution test, anaerobic bacteria; format: cell-based
[1] = test system: Bacteroides thetaiotaomicron; assay: standard agar-dilution test, anaerobic bacteria; format: cell-based; conditions: 24-hour incubation
Experimental: (§1) Table IV summarizes the activity of typical compounds of this invention, as determined by the standard agar-dilution test.
(§2) *Endpoint read after 24-hour incubation

Clostridium septicum = assay: standard agar-dilution test, anaerobic bacteria; format: cell-based; conditions: 24-hour incubation
Experimental: as §1, §2

Bacteroides vulgatis = assay: standard agar-dilution test, anaerobic bacteria; format: cell-based
[2] = test system: Bacteroides melaninogenicus 1856/28; assay: standard agar-dilution test, anaerobic bacteria; format: cell-based; conditions: Prevotella intermedia
[3] = test system: Peptostreptococcus anaerobius; assay: standard agar-dilution test, anaerobic bacteria; format: cell-based; conditions: 24-hour incubation
[4] = test system: Peptostreptococcus intermedius; assay: standard agar-dilution test, anaerobic bacteria; format: cell-based
Actinomyces israelii = assay: standard agar-dilution test, anaerobic bacteria; format: cell-based; conditions: 24-hour incubation
[5] = test system: Bacteroides fragilis 1936B; assay: standard agar-dilution test, anaerobic bacteria; format: cell-based
Pseudomonas sp. (fish) = assay: in vitro activity against Pseudomonas sp. (fish); format: cell-based
Text: P. multocida, for example, is a causative agent of respiratory infection in cattle, poultry and swine. P. hemolytica is a major cause of respiratory disease in cattle. The activity of representative compounds of this invention (R^2 =H in group tested) against P. multocida and the Pseudomonas sp. is summarized in Table VI.

Bacteroides fragilis 111 = assay: standard agar-dilution test, anaerobic bacteria; format: cell-based
[6] = test system: Bacteroides fragilis 1877; assay: standard agar-dilution test, anaerobic bacteria; format: cell-based
[7] = test system: Pasteurella multocida (bovine); assay: in vitro activity against Pasteurella multocida (bovine); format: cell-based
Text: (§3) The activity of representative compounds of this invention (R^2 =H in group tested) against P. multocida and the Pseudomonas sp. is summarized in Table VI.

Spiroplasma citri = assay: in vitro inhibition of Spiroplasma citri measured by a color reaction; format: cell-based; design: key to Activity (color reaction): Red (R) includes complete inhibition; red-orange (RO) indicates partial inhibition; yellow (Y) indicates no inhibition
Experimental: In another important aspect, the compounds of this invention are active against Spiroplasmas. Spiroplasma citri is the causative agent of citrus-stubborn disease; another Spiroplasma, corn-stunt Spiroplasma, affects the growth of corn. Table VII summarizes the in vitro activity of representative compounds of the present invention (R^2 =H in this group) against Spiroplasma citri. In this test, inhibition of S. citri is measured by a color reaction. Red (R) includes complete inhibition; red-orange (RO) indicates partial inhibition; and yellow (Y) indicates no inhibition.

Eubacterium aerofaciens = assay: standard agar-dilution test, anaerobic bacteria; format: cell-based; conditions: Collinsella aerofaciens
[8] = test system: Staphylococcus aureus (H-Heatley) NRRL B-314; assay: in vitro turbidometric assay (Autoturb Microbiological Assay System) against Staphylococcus aureus; format: cell-based; conditions: nutrient broth pH 7, approximately 4 hours at 37° C., A-40104 factor A as standard
Experimental: The compounds are conveniently tested against a typical gram-positive organism, Staphylococcus aureus, using a turbidometric assay on a semi-automated system (Autoturb Microbiological Assay System, Elanco) described by N. R. Kuzel and F. W. Kavanagh in J. Pharmaceut. Sci, 60 (5), 764 and 767 (1971). In testing these compounds, the following parameters were used: Staphylococcus aureus (H-Heatley) NRRL B-314 in a nutrient broth medium (pH 7), incubated for approximately 4 hours at 37° C. Test samples and A-40104 factor A, which is used as a standard, were dissolved in water. The standard was presented to the Autoturb carrousel at concentrations of 1.25, 2.50, 3.75, 5.00 and 6.25 mcg/ml. Test compounds were diluted to contain approximately 2.5 to 5.0 mcg of activity per ml, as presented to the carrousel. The units of activity of some of the typical compounds of this invention (R^2 =H in group tested) in this in vitro assay are summarized in Table I

[9] = test system: Peptococcus asaccharolyticus; assay: standard agar-dilution test, anaerobic bacteria; format: cell-based; conditions: Peptoniphilus asaccharolyticus, 24-hour incubation
[10] = test system: Pasteurella multocida (turkey); assay: in vitro activity against Pasteurella multocida (turkey); format: cell-based
Text: as §3

Clostridium perfringens = assay: microbe, parasite or virus in culture; format: cell-based; conditions: 24 h
[11] = test system: Fusobacterium necrophorum; assay: standard agar-dilution test, anaerobic bacteria; format: cell-based
[12] = test system: Bacteroides melaninogenicus 2736; assay: standard agar-dilution test, anaerobic bacteria; format: cell-based
Mycoplasma hyorhinis = assay: in vitro broth-dilution studies, mycoplasma; format: cell-based
Text: (§4) The minimal inhibitory concentrations (MIC's) of a number of typical compounds of the present invention (R^2 =H in group tested) against various mycoplasma species, as determined by in vitro broth-dilution studies, are summarized in Table V.

Mycoplasma synoviae = assay: in vitro broth-dilution studies, mycoplasma; format: cell-based; conditions: Mycoplasmopsis synoviae
Text: as §4

Mycoplasma hyopneumoniae = assay: in vitro broth-dilution studies, mycoplasma; format: cell-based; conditions: Mesomycoplasma hyopneumoniae
Text: as §4

Mycoplasma gallisepticum = assay: in vitro broth-dilution studies, mycoplasma; format: cell-based; conditions: Mycoplasmoides gallisepticum
Text: as §4

[13] = toxicity (LD50) on intraperitoneal injection in mice; conditions: mouse, in vivo, ip; intraperitoneal injection, mice
[14] = Bacteroides corrodens, 24-hour incubation, read-out: MIC
[15] = Peptococcus prevoti, 24-hour incubation, read-out: MIC
[16] = Fusobacterium symbiosum, 24-hour incubation, read-out: MIC
[17] = Bacteroides vulgatis, 24-hour incubation, read-out: MIC
[18] = Bacteroides melaninogenicus 1856/28, 24-hour incubation, read-out: MIC
[19] = Peptostreptococcus intermedius, 24-hour incubation, read-out: MIC
[20] = Bacteroides fragilis 1936B, 24-hour incubation, read-out: MIC
[21] = Bacteroides fragilis 111, 24-hour incubation, read-out: MIC
[22] = Bacteroides fragilis 1877, 24-hour incubation, read-out: MIC
[23] = Eubacterium aerofaciens, 24-hour incubation, read-out: MIC
[24] = 24-hour incubation, read-out: MIC
[25] = Bacteroides melaninogenicus 2736, 24-hour incubation, read-out: MIC
[26] = Bacteroides fragilis, 1936B, 24 h
[27] = Bacteroides fragilis, 111, 24 h
[28] = Bacteroides fragilis, 1877, 24 h

SMILES	MIC (Bacteroides corrodens; [14]) [µg/mL]	MIC (Peptococcus prevoti; [15]) [µg/mL]	MIC (Fusobacterium symbiosum; [16]) [µg/mL]	MIC [1] [µg/mL]	MIC (Clostridium septicum) [µg/mL]	MIC (Bacteroides vulgatis; [17]) [µg/mL]	MIC [2, 18] [µg/mL]	MIC [3] [µg/mL]	MIC [4, 19] [µg/mL]	MIC (Actinomyces israelii) [µg/mL]	MIC [5, 20] [µg/mL]	Activity (color reaction) (Spiroplasma citri; 0.1 ppm)	Activity (color reaction) (Spiroplasma citri; 1.0 ppm)	Units of Activity [8] [µg/mg]	MIC [9] [µg/mL]	MIC (Clostridium perfringens) [µg/mL]	MIC [11, 24] [µg/mL]	MIC (Mycoplasma hyorhinis) [µg/mL]	MIC (Mycoplasma synoviae) [µg/mL]	MIC (Mycoplasma gallisepticum) [µg/mL]	further results
C=C[C@]1(C)C[C@@H](OC(=O)CS[C@@H]2OC[C@@H](OC(C)=O)[C@H](OC(C)=O)[C@H]2OC(C)=O)[C@]2(C)[C@H](C)CC[C@]3(CCC(=O)[C@H]32)[C@@H](C)[C@@H]1O [Compound 1, 14-deoxy-14-[(2,3,4-tri-O-acetyl-β-D-xylopyranosyl)thioacetoxy]mutilin]	4 (≈ 6.13 µM)	≤ 0.5	4 (≈ 6.13 µM)	8 (≈ 12.3 µM)	≤ 0.5	4 (≈ 6.13 µM)	> 128	≤ 0.5	≤ 0.5	≤ 0.5	8 (≈ 12.3 µM)	R,R	R,R	568 to 579	≤ 0.5	16 (≈ 24.5 µM)	≤ 0.5	–	–	–	MIC (Pseudomonas sp. (fish)): 12.5 µg/mL (≈ 19.1 µM); MIC (Bacteroides fragilis 111; [21]): 8 µg/mL (≈ 12.3 µM); MIC [6, 22]: 4 µg/mL (≈ 6.13 µM); MIC [7]: < 50 µg/mL; Activity (color reaction) (Spiroplasma citri; 0.01 ppm): Y,RO; Activity (color reaction) (Spiroplasma citri; 0.05 ppm): --,R; MIC (Eubacterium aerofaciens; [23]): 16 µg/mL (≈ 24.5 µM); MIC [10]: 50 µg/mL (≈ 76.6 µM); MIC [12, 25]: 2 µg/mL (≈ 3.06 µM)
CC[C@]1(C)C[C@@H](OC(=O)CS[C@@H]2OC[C@@H](OC(C)=O)[C@H](OC(C)=O)[C@H]2OC(C)=O)[C@]2(C)[C@H](C)CC[C@]3(CCC(=O)[C@H]32)[C@@H](C)[C@@H]1O [Compound 6, 14-deoxy-14-[(2,3,4-tri-O-acetyl-β-D-xylopyranosyl)thioacetoxy]-19,20-dihydromutilin]	4 (≈ 6.11 µM)	2 (≈ 3.05 µM)	4 (≈ 6.11 µM)	8 (≈ 12.2 µM)	1 (≈ 1.53 µM)	4 (≈ 6.11 µM)	2 (≈ 3.05 µM)	≤ 0.5	4 (≈ 6.11 µM)	2 (≈ 3.05 µM)	8 (≈ 12.2 µM)	R	R	746 to 883	4 (≈ 6.11 µM)	> 128	4 (≈ 6.11 µM)	0.39 (≈ 0.596 µM)	0.78 (≈ 1.19 µM)	0.78 (≈ 1.19 µM)	MIC (Mycoplasma hyopneumoniae): ≤ 0.15 µg/mL; MIC (Pseudomonas sp. (fish)): 12.5 µg/mL (≈ 19.1 µM); MIC (Bacteroides fragilis 111; [21]): 2 µg/mL (≈ 3.05 µM); MIC [6, 22]: 2 µg/mL (≈ 3.05 µM); MIC [7]: < 50 µg/mL; Activity (color reaction) (Spiroplasma citri; 0.01 ppm): RO; Activity (color reaction) (Spiroplasma citri; 0.05 ppm): R; MIC (Eubacterium aerofaciens; [23]): 16 µg/mL (≈ 24.4 µM); MIC [10]: < 50 µg/mL; MIC [12, 25]: 4 µg/mL (≈ 6.11 µM)
CC[C@]1(C)C[C@@H](OC(=O)CO[C@H]2O[C@H](COC(C)=O)[C@@H](OC(C)=O)[C@H](OC(C)=O)C2=NO)[C@]2(C)[C@H](C)CC[C@]3(CCC(=O)[C@H]32)[C@@H](C)[C@@H]1O [Compound 8, 14-deoxy-14-[(2-deoxy-2-(hydroxyimino)-3,4,6-tri-O-acetyl-α-D-glucopyranosyl)oxyacetoxy]-19,20-dihydromutilin]	–	–	–	> 128	> 128	–	–	64 (≈ 93.9 µM)	–	8 (≈ 11.7 µM)	–	Y	R	–	8 (≈ 11.7 µM)	> 128	–	6.25 (≈ 9.17 µM)	6.25 (≈ 9.17 µM)	3.12 (≈ 4.58 µM)	MIC (Bacteroides corrodens; 24 h): > 128 µg/mL; MIC (Peptococcus prevoti; 24 h): > 128 µg/mL; MIC (Fusobacterium symbiosum; Fusobacterium, 24 h): > 128 µg/mL; MIC (Bacteroides vulgatis; Bacteroides, 24 h): > 128 µg/mL; MIC ([2]; 1856/28, 24 h): > 128 µg/mL; MIC ([4]; Peptostreptococcus, 24 h): > 128 µg/mL; MIC [5, 26]: > 128 µg/mL; MIC (Bacteroides fragilis 111; [27]): > 128 µg/mL; MIC [6, 28]: > 128 µg/mL; LD50 [13]: > 300 mg/kg; MIC (Eubacterium aerofaciens; 24 h): > 128 µg/mL; MIC ([11]; 24 h): > 128 µg/mL; MIC ([12]; 2736, 24 h): > 128 µg/mL
C=C[C@]1(C)C[C@@H](OC(=O)CO[C@H]2O[C@H](COC(C)=O)[C@H](OC(C)=O)[C@H](OC(C)=O)C2=NO)[C@]2(C)[C@H](C)CC[C@]3(CCC(=O)[C@H]32)[C@@H](C)[C@@H]1O [Compound 9, 14-deoxy-14-[(2-deoxy-2-(hydroxyimino)-3,4,6-tri-O-acetyl-α-D-galactopyranosyl)oxyacetoxy]mutilin]	–	16 (≈ 23.5 µM)	–	> 128	> 128	–	–	2 (≈ 2.94 µM)	–	1 (≈ 1.47 µM)	–	–	–	53 to 54	16 (≈ 23.5 µM)	> 128	64 (≈ 94.2 µM)	1.56 (≈ 2.29 µM)	< 0.78	< 0.78	MIC (Bacteroides corrodens; 24 h): > 128 µg/mL; MIC (Fusobacterium symbiosum; Fusobacterium, 24 h): > 128 µg/mL; MIC (Bacteroides vulgatis; Bacteroides, 24 h): > 128 µg/mL; MIC (Mycoplasma hyopneumoniae): 0.78 µg/mL (≈ 1.15 µM); MIC ([2]; 1856/28, 24 h): > 128 µg/mL; MIC ([4]; Peptostreptococcus, 24 h): > 128 µg/mL; MIC [5, 26]: > 128 µg/mL; MIC (Bacteroides fragilis 111; [27]): > 128 µg/mL; MIC [6, 28]: > 128 µg/mL; MIC (Eubacterium aerofaciens; 24 h): > 128 µg/mL; MIC ([12]; 2736, 24 h): > 128 µg/mL
